The results in this text go back to patent publication US7087227B2, “Cartilage composites and methods of use” (Barnes-Jewish Hospital, priority 1997, dated 2006).

What all share (assay type): cell-based, human
In assay [1] the test system is neocartilage. Put plainly: Cytokine-induced resorption of neocartilage (matrix content, gross and histological appearance). How it is done: It is seen that chronic IL-1 stimulation alters cartilage staining for proteoglycan and collagen. • Day 60 neocartilages were treated with 1 ng/ml rhIL-1β for 30 days. Fresh media and cytokine were added every 48 hours. • Neocartilages were harvested (day 90) and stained with safranin-O and pentachrome as before. […] Magnification×100.
Neocartilage cultures were established in 24 or 48 well plastic dishes (Corning) as described above (Example 1) and grown to day 30. The hyaline cartilage matrix was then stimulated to undergo autolytic degradation following 30 day activation with increasing concentrations of a variety of cytokine and/or inflammatory agents, including IL-1, Il-6, IL-17, TNF-α, LPS, and phorbol ester. Culture media were collected every 48 hours and subsequently changed by the addition of fresh media±inflammatory stimuli.
Cultures were terminated and the biochemical composition of the neocartilage matrix that remained was analyzed as described previously. Parallel samples were processed for light and transmission electron microscopy for histological evaluation of extracellular matrix components.

For assay [2], the system named is neocartilage. The assay is described as above. As to conditions: day 28 tissue stimulated for additional 36 days.
In assay [3] the test system is matrix metalloproteinases (MMPs). The assay is described as follows: Zymogram and Western analysis of chondrocyte-derived metalloproteinases in spent media. As to conditions: substrate gels. How it is done:
FIG. 10, in two parts, FIGS. 10A and 10B, represent SDS-substrate gel (zymogram) analysis of cytokine-mediated production of matrix metalloproteinases (MMPs) in fetal articular chondrocytes (neocartilage disks). Negative staining indicates the molecular weight (MW) in kDa of the active proteases. • Spent media were collected 72 h post stimulation with the indicated cytokine (5 ng/ml) and concentrated 16-fold by dialysis/lyophilization. • Unreduced samples were separated on 10% SDS substrate gels containing either gelatin (FIG. 10A) or casein (FIG. 10B) 0.1%. • MMPs were renatured following SDS removal by extensive washing in 2.5% Triton X-100 and lytic bands visualized via negative staining with Coomassie blue, following incubation in a calcium and zinc containing buffer for 4 hr at 37° C. • Latent enzyme activity is shown in lanes 1–4, while the corresponding active enzymes were prepared by preincubation with 1 mM 4-aminophenyl mercuric acetate (APMA lanes 5–8).
Conditioned media were thawed and identification of chondrocyte-derived metalloproteinases assessed by zymogen substrate gel electrophoresis, as well as Western analysis following SDS-PAGE. Further studies examined the effect of activating agents on synthesis of S-GAG and collagen via radiolabeled incorporation.

In the next assay the test system is Fetal chondrocytes. Put plainly: Effect of heparin on neocartilage formation. Particulars: day 10–28. The protocol: Day 10 neocartilage was treated with increasing amounts of heparin for 18 days. Fresh media, containing heparin and ascorbate were added every 72–96 hrs. Media were collected and frozen for future analysis. Cultures were harvested on day 28 and the S-GAG content (FIG. 18A) and OH-proline content (FIG. 18B) of the resultant neocartilage assayed as described hereinbelow.
Fetal chondrocytes were grown as described above and subdivided into three groups on day 10 to investigate the effect of heparin on neocartilage formation. In low doses, heparin is known to increase the activity of certain growth factors, for example the fibroblast growth factor (FGF) family of related proteins, by acting as a co-factor, whereas greater amounts of heparin will strip away certain growth factors from the extracellular matrix and thereby impede tissue repair.
Sterile heparin was added to the media at a final concentration of […] for the duration of the culture period (i.e. from day 10–28). Media were exchanged every 3–4 days and recovered for electrophoretic analysis of secreted proteins. Cell layers were removed and the S-GAG (FIG. 18A), hydroxy proline (FIG. 18B), and DNA content quantitated as before (FIG. 18).

Setting [4] is: cytokine 1.0 (ng/ml), chronic treatment.
Where [5] appears, read: cytokine 5.0 (ng/ml), chronic treatment.

For “IL-1β: cytokine used to stimulate resorption of neocartilage”, the “OH-proline content of tissue” value in the assay on neocartilage [1] (cytokine 0.1 ng/ml, chronic treatment) stood at 572 ± 105 pmol; with neocartilage [1] (setting [4]), 541 ± 16 pmol; with neocartilage [1] (setting [5]), 501 ± 48 pmol; in the assay with neocartilage [1] (cytokine + 50 mU plasminogen, cytokine concentration not printed on the line), 460 ± 16 pmol. Besides, the “thickness of the synthesized matrix” value with neocartilage [1] (day 60 neocartilage, 1 ng/ml for 30 days) is “significant reduction in the thickness of the synthesized matrix”. Moreover, in the assay on neocartilage [1] (day 60 neocartilage, 1 ng/ml for 30 days, versus untreated controls), the “safranin-O and pentachrome staining intensity” value was “Staining intensity is markedly reduced”. Besides, the “gross appearance of neocartilage on removal from plastic surface” value in the assay with neocartilage [2] is listed as “retracted considerably upon removal from the plastic surface”.

Consider `CCCCCCCCCCCCCC(=O)O[C@@H]1[C@@H](C)[C@@]2(O)[C@@H](C=C(CO)C[C@]3(O)C(=O)C(C)=C[C@@H]23)[C@@H]2C(C)(C)[C@]12OC(C)=O` [Phorbol ester], for which the metalloproteinase synthesis induced entry in assay [3] was “specifically induced synthesis of gelatinase B”.

As for heparin, the “defect in matrix deposition” value in the assay with Fetal chondrocytes (2 μg/ml) is reported as “much less severe”. Further, the “inhibition in OH-proline (matrix deposition)” value with Fetal chondrocytes (highest concentration of heparin (20 μg)) is 33%.

Regarding TNF-α, the “OH-proline content of tissue” value amounted to 403 pmol with neocartilage [1] (setting [4]) and 355 pmol in the assay on neocartilage [1] (setting [5]). Moreover, in the assay with neocartilage [2], the “gross appearance of neocartilage on removal from plastic surface” value was “retracted considerably upon removal from the plastic surface”.

B1: plasminogen: added to enhance the activation of latent MMPs via the plasminogen activator/plasmin cascade (protein, UniProt P00747 20-810, looked up)
Plasminogen: EPLDDYVNTQGASLFSVTKKQLGAGSIEECAAKCEEDEEFTCRAFQYHSKEQQCVIMAENRKSSIIIRMRDVVLFEKKVYLSECKTGNGKNYRGTMSKTKNGITCQKWSSTSPHRPRFSPATHPSEGLEENYCRNPDNDPQGPWCYTTDPEKRYDYCDILECEEECMHCSGENYDGKISKTMSGLECQAWDSQSPHAHGYIPSKFPNKNLKKNYCRNPDRELRPWCFTTDPNKRWELCDIPRCTTPPPSSGPTYQCLKGTGENYRGNVAVTVSGHTCQHWSAQTPHTHNRTPENFPCKNLDENYCRNPDGKRAPWCHTTNSQVRWEYCKIPSCDSSPVSTEQLAPTAPPELTPVVQDCYHGDGQSYRGTSSTTTTGKKCQSWSSMTPHRHQKTPENYPNAGLTMNYCRNPDADKGPWCFTTDPSVRWEYCNLKKCSGTEASVVAPPPVVLLPDVETPSEEDCMFGNGKGYRGKRATTVTGTPCQDWAAQEPHRHSIFTPETNPRAGLEKNYCRNPDGDVGGPWCYTTNPRKLYDYCDVPQCAAPSFDCGKPQVEPKKCPGRVVGGCVAHPHSWPWQVSLRTRFGMHFCGGTLISPEWVLTAAHCLEKSPRPSSYKVILGAHQEVNLEPHVQEIEVSRLFLEPTRKDIALLKLSSPAVITDKVIPACLPSPNYVVADRTECFITGWGETQGTFGAGLLKEAQLPVIENKVCNRYEFLNGRVQSTELCAGHLAGGTDSCQGDSGGPLVCFEKDKYILQGVTSWGLGCARPNKPGVYVRVSRFVTWIEGVMRNN
In the case of B1, the “OH-proline content of tissue” value with neocartilage [1] (50 mU plasminogen alone, no cytokine, chronic treatment) came out at 1648 ± 72 pmol.
